Measurements as given in patent publication US20210154268A1, “COMBINATION THERAPY USING A PEPTIDE” (CYTOVATION AS, priority 2018, published 2021).
Where no end group is shown, it is not given here. [ ]: non-standard residue; d: D form.

Legend:
[1] = tested on: Gram-positive and Gram-negative bacteria; conditions: medically-relevant species of Gram-positive and Gram-negative bacteria; cited from earlier work
tumour = conditions: animal models of disease; cited from earlier work
cancer cells = conditions: in vitro; cited from earlier work
[2] = tested on: MC38 colon carcinoma cells; test: MC38 colon carcinoma mouse model, tumour volume by caliper; assay type: in vivo; conditions: female C57/BL6N mice with MC38 tumours; CyPep-1 2 mg/kg intratumoural days 1 and 2; anti-PD-1 antibody 5 mg/kg intraperitoneal days 4, 8, 11, 15; unpaired two-tailed t-test; combination P=0.02
Experimental: Female C57/BL6N mice were shaved at the intended site of tumour inoculation. 4 days later the mice were implanted with 5×10^5 MC38 colon carcinoma cells in a mixture of 50% PBS and 50% matrigel in a total injection volume of 100 μl.
Tumour sizes were measured by caliper. When the median tumour volume reached 100 mm^3, 40 mice were randomised to four groups: 1) Ctr_IT; 2) Ctr_IT_PD1; 3) CyPep_IT; and 4) CyPep_IT_PD1.
The Ctr_IT group were administered 0.05 ml/kg intratumoural PBS on days 1 and 2.
The Ctr_IT_PD1 group were administered 0.05 ml/kg/day intratumoural PBS on days 1 and 2, and 5 mg/kg intraperitoneal anti-PD-1 antibody on days 4, 8, 11 and 15. The anti-PD-1 antibody was administered in PBS at a concentration of 1 mg/ml.
The CyPep_IT group were administered 2 mg/kg CyPep-1 on days 1 and 2. Administration was intratumoural in PBS at a concentration of 40 mg/ml.
The CyPep_IT_PD1 group were administered 2 mg/kg intratumoural CyPep-1 in PBS at a concentration of 40 mg/ml on days 1 and 2; and 5 mg/kg intraperitoneal anti-PD-1 antibody on days 4, 8, 11 and 15, in PBS at a concentration of 1 mg/ml.
All groups were standardised prior to checkpoint inhibitor administration by excluding animals with tumours+/−>2X average at day three. […] Average tumour volumes of the groups were analysed by unpaired two-tailed t-test, and the tumours were also histologically analysed.

CyPep-1: all D-amino acid peptide of SEQ ID NO: 1; Conductin/Axin2 fragment coupled to the C-terminus of the HIV-TAT cell-penetrating peptide ([dY]G[dR][dK][dK][dR][dR][dQ][dR][dR][dR]G[dK][dT][dL][dR][dV][dA][dK][dA][dI][dY][dK][dR][dY][dI][dE])
bacteriocidal effect [1]: potent bacteriocidal effect | anti-tumour effect (tumour): strong anti-tumour effect | tolerability (tumour): well tolerated | selective cytotoxicity towards cancer cells (cancer cells): selectively cytotoxic towards cancer cells | tumour growth compared to the control group which received only PBS [2]: no statistically-significant difference
